“And” between values parts separate entries of the source, which are not always exact repeats. Identical values can stand only once.
How the values were obtained:
[1] = HPN-100-005 pharmacokinetics of HPN-100 and NaPBA in pediatric UCD patients; type: in vivo, human; details: HPN-100-005 (N = 11)
Text: (§1) The pharmacokinetics of the short term studies can be summarized as follows. Mean exposure levels of HPN-100 metabolites PBA, PAA, and PAGN after doses of HPN-100 and NaPBA with meals (TID) in pediatric (29 days to 17 years of age) UCD patients in HPN-100-005 and HPN-100-012 studies are summarized below. The mean exposure to PBA, the parent metabolite, and mean exposure to PAGN, the terminal metabolite, show no systematic variation across age groups, while PAA exposure tended to decrease with increasing age, a finding consistent with those from population PK modeling which indicate that the rate of clearance/metabolism of PAA varies directly with body size. While systemic metabolite exposure, assessed as peak plasma concentration (Cmax) or AUC, is generally similar for HPN-100 and NaPBA, the minimum concentration (Cmin-ss) was higher—and/or percent-fluctuation less—for plasma PAGN, a finding consistent with slower gastrointestinal absorption of PBA when administered orally as HPN-100.

[2] = HPN-100-012 switch-over study, pharmacokinetics of HPN-100 and NaPBA in pediatric UCD patients; type: in vivo, human; details: HPN-100-012 (N = 15), TID with meals
Experimental: HPN-100-012, an open-label, fixed sequence, switch-over study of the safety, PK and efficacy of HPN-100 compared to NaPBA in patients with UCDs, with a 12-month safety extension part. The switch-over part of the study and the 12-month safety extension are complete. The switch-over part was conducted at 7 U.S. centers and enrolled 15 pediatric UCD patients between 29 days and <6 year of age, all of whom completed the study. After review of all the safety data by the DSMB, 8 additional subjects were enrolled in the study after the switch-over phase was completed. The primary efficacy endpoint was the 24-hour AUC (area under the curve) for blood ammonia on Day 1 compared with Day 10.
as §1

[3] = test system: venous ammonia in pediatric patients with UCDs; experiment: Study 6, uncontrolled open-label study in children under 2 years of age; type: in vivo, human
Experimental: Uncontrolled, open-label studies were conducted to assess monthly ammonia control and hyperammonemic crisis of RAVICTI® in pediatric patients with UCDs 2 months to less than 2 years of age (Study 4/4E, Study 5, and Study 6). Patients in Study 5 previously participated in Study 4/4E. A total of 17 pediatric patients with UCDs aged 2 months to less than 2 years participated in the studies.
A total of 10 pediatric patients with UCDs aged 2 months to less than 2 years participated in Study 6, of which 7 patients converted from sodium phenylbutyrate to RAVICTI®. The dosage of RAVICTI® was calculated to deliver the same amount of PBA as the sodium phenylbutyrate dosage the patients were taking when they entered the trial. Two patients were treatment naïve and received RAVICTI® dosage of 7.5 mL/m^2/day and 9.4 mL/m^2/day, respectively. One additional patient was gradually discontinued from intravenous sodium benzoate and sodium phenylacetate while RAVICTI® was initiated. The dosage of RAVICTI® after transition was 8.5 mL/m^2/day.
In Study 6, there were 9, 7 and 3 pediatric patients who completed 1, 3 and 6 months, respectively (mean and median exposure of 4 and 5 months, respectively).
Patients received a mean RAVICTI® dose of 8 mL/m^2/day (8.8 g/m^2/day), with doses ranging from 4.8 to 11.5 mL/m^2/day (5.3 to 12.6 g/m^2/day). Patients were dosed three times a day (n=6), four times a day (n=2), or five or more times a day (n=2).
The primary efficacy endpoint was successful transition to RAVICTI® within a period of 4 days followed by 3 days of observation for a total of 7 days, where successful transition was defined as no signs and symptoms of hyperammonemia and a venous ammonia value less than 100 micromol/L. Venous ammonia levels were monitored for up to 4 days during transition and on day 7. Nine patients successfully transitioned as defined by the primary endpoint. One additional patient developed hyperammonemia on day 3 of dosing and experienced surgical complications (bowel perforation and peritonitis) following jejunal tube placement on day 4. This patient developed hyperammonemic crisis on day 6, and subsequently died of sepsis from peritonitis unrelated to drug. Although two patients had day 7 ammonia values of 150 micromol/L and 111 micromol/L respectively, neither had associated signs and symptoms of hyperammonemia.
During the extension phase, venous ammonia levels were monitored monthly. Ammonia values across different laboratories were normalized (transformed) to a common normal pediatric range of 28 to 57 micromol/L for comparability. The mean normalized venous ammonia values in pediatric patients at month 1, 2, 3, 4, 5 and 6 were 67, 53, 78, 99, 56 and 61 micromol/L during treatment with RAVICTI®, respectively. Three patients reported a total of 7 hyperammonemic crises defined as having signs and symptoms consistent with hyperammonemia (such as frequent vomiting, nausea, headache, lethargy, irritability, combativeness, and/or somnolence) associated with high venous ammonia levels and requiring medical intervention. Hyperammonemic crises were precipitated by vomiting, upper respiratory tract infection, gastroenteritis, decreased caloric intake or had no identified precipitating event (3 events). There were three additional patients who had one venous ammonia level that exceeded 100 micromol/L which was not associated with a hyperammonemic crisis.

ammonia in UCD patients = experiment: Open label fixed-sequence switch-over comparison of RAVICTI to NaPBA, 4 patients aged 2 months to 2 years; type: in vivo, human
Text: While the U.S. approval of RAVICTI® was based on its evaluation in 6 clinical trials involving over 100 adult and pediatric UCD patients aged 2 months old and above, only 7 patients aged 2 months to 2 years were enrolled in these studies. […] PAA exposure, also assessed as 24-hour area under the curve, was very similar. However, the number of patients in this age group studied at the time of RAVICTI's approval was small and considerable patient-to-patient variability was observed.

[4] = test system: pancreatic lipase-related protein; details: cited from earlier work
[5] = pediatric UCD patients, TID with meals, arithmetic mean
[6] = Study 6 extension phase, normalized to 28 to 57 micromol/L

Plasma PAA CLss/F [1, 5]: 15082 mL/min
Plasma PBA CLss/F [1, 5]: 20545 mL/min
Plasma PAGN CLss/F ([1]; pediatric UCD patients, TID with meals, arithmetic mean (CV %)): 14237 mL/min
U-PAGN Ae0-12 ([1]; urinary PAGN excreted 0-12 h, arithmetic mean): 5611719 µg
U-PAGN Ae12-24 ([1]; urinary PAGN excreted 12-24 h, arithmetic mean): 6889318 µg
Plasma PAA % Fluctuation ([2]; arithmetic mean): 2141%
Plasma PAA AUC0-24 ([2]; arithmetic mean): 1096 µg·h/mL
Plasma PAA CLss/F ([2]; arithmetic mean): 25538 mL/min
Plasma PAGN CLss/F ([2]; arithmetic mean): 10830 mL/min
Plasma PBA CLss/F ([2]; arithmetic mean): 22610 mL/min
Plasma PBA Cmin-ss ([2]; arithmetic mean): 750 ng/mL
Plasma PAA Cmax-ss ([2]; arithmetic mean (CV %)): 84700 ng/mL
Plasma PAA Cmin-ss ([2]; arithmetic mean (CV %)): 26100 ng/mL
Plasma PAGN Cmin-ss ([2]; arithmetic mean (CV %)): 19900 ng/mL
PAA exposure assessed as 24-hour area under the curve, RAVICTI vs NaPBA (ammonia in UCD patients): very similar
Structure (SMILES): O=C(CCCc1ccccc1)OCC(COC(=O)CCCc1ccccc1)OC(=O)CCCc1ccccc1 [HPN-100, benzenebutanoic acid, 1′,1″-(1,2,3-propanetriyl) ester]
U-PAGN Ae ([1]; urinary PAGN excreted, arithmetic mean): 12501037 µg
additional patients with one venous ammonia level exceeding 100 micromol/L not associated with a hyperammonemic crisis ([3]; Study 6): three
patients successfully transitioned (no signs and symptoms of hyperammonemia and venous ammonia less than 100 micromol/L) ([3]; Study 6, 10 patients 2 months to <2 years, 7 days): Nine
day 7 ammonia values of two individual patients ([3]; Study 6, no associated signs and symptoms of hyperammonemia, listed as RAVICTI®): 150 µmol/L and 111 µmol/L
total hyperammonemic crises ([3]; Study 6, reported by three patients): 7
mean normalized venous ammonia, month 1 [3, 6]: 67 µmol/L
mean normalized venous ammonia, month 2 [3, 6]: 53 µmol/L
mean normalized venous ammonia, month 3 [3, 6]: 78 µmol/L
mean normalized venous ammonia, month 4 [3, 6]: 99 µmol/L
mean normalized venous ammonia, month 5 [3, 6]: 56 µmol/L
mean normalized venous ammonia, month 6 [3, 6]: 61 µmol/L
mean ammonia exposure assessed at 24-hour area under the curve, RAVICTI vs NaPBA (ammonia in UCD patients): non-inferior
hydrolysis in vitro by pancreatic lipase-related protein [4]: hydrolyze
